Test results as given in publication PMC7158045 (BMC Plant Biology, 2020).
Where a name gives a salt, the structure may show the parent alone.

Assays:
Assay in all cases: biochemical
ZmDRIK1-R187-P492 = target: T1, ZmDRIK1-R187-P492 (Zea mays, UniProt C0P4K9); conditions: read-out: dTm B, DSF, Boltzmann fit, 0.1% DMSO
T1 construct: kinase domain, R187-P492
T1 sequence (C0P4K9 1-514): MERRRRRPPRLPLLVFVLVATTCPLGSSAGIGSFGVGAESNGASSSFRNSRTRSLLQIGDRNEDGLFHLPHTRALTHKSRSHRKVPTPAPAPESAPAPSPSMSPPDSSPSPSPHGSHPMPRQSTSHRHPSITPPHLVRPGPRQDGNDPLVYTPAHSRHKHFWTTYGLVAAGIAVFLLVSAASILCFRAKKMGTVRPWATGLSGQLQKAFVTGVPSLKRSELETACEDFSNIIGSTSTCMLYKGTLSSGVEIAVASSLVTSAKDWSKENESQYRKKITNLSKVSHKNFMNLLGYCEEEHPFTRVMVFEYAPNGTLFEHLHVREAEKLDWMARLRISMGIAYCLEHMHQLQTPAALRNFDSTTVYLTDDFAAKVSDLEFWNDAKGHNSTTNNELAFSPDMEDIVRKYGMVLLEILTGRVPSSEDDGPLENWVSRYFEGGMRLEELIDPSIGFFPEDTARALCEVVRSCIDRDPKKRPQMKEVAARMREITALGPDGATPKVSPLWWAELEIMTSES

[1] = target: T2, ZmDRIK1 (DROUGHT RESPONSIVE INACTIVE KINASE 1), kinase domain (Zea mays, UniProt C0P4K9); conditions: read-out: dTm B, sheet ZmDRIK1-R187-S514;; DSF, Boltzmann fit, 0.1% DMSO
T2 construct: gene ZEAMMB73_Zm00001d028770; ZmDRIK1-KD R187-S514 (kinase domain)
T2 sequence (C0P4K9 187-514): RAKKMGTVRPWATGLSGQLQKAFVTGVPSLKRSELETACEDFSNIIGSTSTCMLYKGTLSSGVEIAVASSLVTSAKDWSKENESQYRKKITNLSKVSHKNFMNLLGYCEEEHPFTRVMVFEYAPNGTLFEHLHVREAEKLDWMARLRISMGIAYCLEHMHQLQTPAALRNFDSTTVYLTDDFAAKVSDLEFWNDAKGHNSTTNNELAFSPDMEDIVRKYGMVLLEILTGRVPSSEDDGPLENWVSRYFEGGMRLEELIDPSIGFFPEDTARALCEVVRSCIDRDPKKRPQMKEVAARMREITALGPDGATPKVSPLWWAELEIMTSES

ZmDRIK1-K217-P492 = target: T3, ZmDRIK1-K217-P492 (Zea mays, UniProt C0P4K9); conditions: read-out: dTm B, sheet ZmDRIK1-K217-P492;; DSF, Boltzmann fit, 0.1% DMSO
T3 construct: kinase domain, K217-P492
T3 sequence (C0P4K9 1-514): T1 sequence (C0P4K9 1-514)

ZmDRIK1-K217-S514 = target: T4, ZmDRIK1-K217-S514 (Zea mays, UniProt C0P4K9); conditions: read-out: dTm B, sheet ZmDRIK1-K217-S514;; DSF, Boltzmann fit, 0.1% DMSO
T4 construct: kinase domain, K217-S514
T4 sequence (C0P4K9 1-514): T1 sequence (C0P4K9 1-514)

Row | Structure (SMILES) | ΔTm at 10 µM (ZmDRIK1-R187-P492) | ΔTm at 10 µM [1] | ΔTm at 10 µM (ZmDRIK1-K217-P492) | ΔTm at 10 µM (ZmDRIK1-K217-S514)
1 | COc1cc2nccc(Oc3ccc(NC(=O)NC4CC4)c(Cl)c3)c2cc1C(N)=O [Lenvatinib (E7080)] | -0.406 °C | -1.04 °C | -1.02 °C | -0.299 °C
2 | CNC(=O)c1cccc(-c2ccc3c(N4CCOC[C@@H]4C)nc(N4CCOC[C@@H]4C)nc3n2)c1 [AZD2014] | -0.208 °C | -0.732 °C | -0.984 °C | -0.171 °C
3 | CNC(=O)c1cc(Oc2ccc(NC(=O)Nc3ccc(Cl)c(C(F)(F)F)c3)c(F)c2)ccn1 [Regorafenib (BAY 73-4506)] | -5.88 °C | -15.3 °C | -8.99 °C | -0.13 °C
4 | COC[C@H]1OC(=O)c2coc3c2[C@@]1(C)C1=C(C3=O)[C@@H]2CCC(=O)[C@@]2(C)C[C@H]1OC(C)=O [Wortmannin] | -0.289 °C | -0.735 °C | -1.08 °C | -0.299 °C
5 | COc1ccc(-c2cc3c(C)nc(N)nc3n([C@H]3CC[C@H](OCCO)CC3)c2=O)cn1 [PF-04691502] | -0.18 °C | -0.814 °C | -0.953 °C | -0.31 °C
6 | CCCCOc1c(C(=O)c2c(F)cc(C)cc2F)c[nH]c2nncc1-2 [BMS-265246] | -0.249 °C | -0.676 °C | -1.05 °C | -0.226 °C
7 | NC1(Cc2ccc(Cl)cc2)CCN(c2ncnc3[nH]ccc23)CC1 [CCT128930] | -0.325 °C | -0.523 °C | -1.15 °C | -0.48 °C
8 | O=C(NC(NC(=S)Nc1ccc(F)c([N+](=O)[O-])c1)C(Cl)(Cl)Cl)C(c1ccccc1)c1ccccc1 (stereo not drawn) [CGK 733] | 0.467 °C | 0.221 °C | -1.46 °C | 0.146 °C
9 | Nc1ncnc2c1c(-c1cccc(OCc3ccccc3)c1)cn2[C@H]1C[C@@H](CN2CCC2)C1 [NVP-AEW541] | -0.332 °C | -0.841 °C | -1.08 °C | -0.366 °C
10 | C[C@@H]1COCCN1c1cc(C2(S(C)(=O)=O)CC2)nc(-c2cccc3[nH]ccc23)n1 [AZ20] | -0.0341 °C | -0.953 °C | -0.913 °C | -0.493 °C
11 | Cc1[nH]c2ccccc2c1C1=C(NCCc2ccc(F)cc2)C(=O)N(C)C1=O [IM-12] | -0.527 °C | -0.881 °C | -1.43 °C | -0.628 °C
12 | Cc1cc(C)nc(NS(=O)(=O)c2ccc(NC(=S)NC(=O)COc3ccc(Br)cc3Cl)cc2)n1 [ZCL278] | -0.134 °C | -1.01 °C | -1.02 °C | -0.166 °C
13 | CN(C)Cc1cccc(N=C(c2ccccc2)c2c(O)[nH]c3cc(C(=O)N(C)C)ccc23)c1 [BIX 02189] | -0.0835 °C | -0.921 °C | 0.0556 °C | -0.274 °C
14 | CC(C)N(CCC(=O)c1ccc2ccccc2c1)Cc1ccccc1 [ZM 39923 HCl] | -0.636 °C | -1.58 °C | -2.03 °C | -0.827 °C
15 | N#Cc1c(O)c2c(-c3ccc(-c4ccccc4O)cc3)csc2[nH]c1=O [A-769662] | -0.292 °C | -1.11 °C | -1.24 °C | -0.453 °C
16 | COc1cc2ncnc(Nc3ccc(F)c(Cl)c3)c2cc1NC(=O)/C=C/CN1CCCCC1 [Dacomitinib (PF299804)] | -0.258 °C | -0.735 °C | -0.0919 °C | -0.1 °C
17 | N#Cc1c(NC(=O)c2cccc3ccccc23)sc2c1CCCC2 [JNK Inhibitor IX] | -0.365 °C | -1.05 °C | -1.09 °C | -0.601 °C
18 | FC(F)c1nc2ccccc2n1-c1nc(N2CCOCC2)nc(N2CCOCC2)n1 [ZSTK474] | -0.113 °C | -1.02 °C | -0.762 °C | -0.199 °C
